Read-outs that look alike come from different tables or passages of the source.
Columns and labels:
[1] = system: K562 cells; test: Doxorubicin intracellular accumulation assay (flow cytometry) in K562; format: cell-based; design: key: MFI with inhibitor / MFI of Dox alone; details: 5 μM Dox
Experimental: (§1) The intracellular accumulation of the fluorescent probes, Dox and Rho123, was determined by monitoring its fluorescence intensity using flow cytometry (96-well plate format), as previously reported. The inhibition on the outward transport of these P-gp substrates results in an increased […] fluorescence intensity (MFI). […] Those compounds showing inhibition on P-gp at the maximum tested concentration were further evaluated at serial dilutions to determinate their MECs. […] The plates were then incubated in a 5% CO2 incubator for 1 h at 37 °C. Afterwards, 5 μM Dox was added to each well. The other fluorescent specific substrate of P-gp, Rho123, however, was added at 500 ng/mL to additionally measure the ability of the most promising compounds to block its efflux. Subsequently, cells from both assays were washed twice with cold PBS, and 15,000 events from each sample were analyzed to determine the cell-associated fluorescence. Dead cells were eliminated by means of forward- and side-scatter parameters. […] The blocking of the P-gp transport function was evaluated by the parameter FIR, calculated as the ratio of the MFI of Dox or Rho123 with the addition of the likely inhibitor to the MFI of Dox or Rho123 alone.

[2] = molecular target: T1, P-gp (Homo sapiens, UniProt P08183); details: 1 h
T1 sequence (P08183 whole entry): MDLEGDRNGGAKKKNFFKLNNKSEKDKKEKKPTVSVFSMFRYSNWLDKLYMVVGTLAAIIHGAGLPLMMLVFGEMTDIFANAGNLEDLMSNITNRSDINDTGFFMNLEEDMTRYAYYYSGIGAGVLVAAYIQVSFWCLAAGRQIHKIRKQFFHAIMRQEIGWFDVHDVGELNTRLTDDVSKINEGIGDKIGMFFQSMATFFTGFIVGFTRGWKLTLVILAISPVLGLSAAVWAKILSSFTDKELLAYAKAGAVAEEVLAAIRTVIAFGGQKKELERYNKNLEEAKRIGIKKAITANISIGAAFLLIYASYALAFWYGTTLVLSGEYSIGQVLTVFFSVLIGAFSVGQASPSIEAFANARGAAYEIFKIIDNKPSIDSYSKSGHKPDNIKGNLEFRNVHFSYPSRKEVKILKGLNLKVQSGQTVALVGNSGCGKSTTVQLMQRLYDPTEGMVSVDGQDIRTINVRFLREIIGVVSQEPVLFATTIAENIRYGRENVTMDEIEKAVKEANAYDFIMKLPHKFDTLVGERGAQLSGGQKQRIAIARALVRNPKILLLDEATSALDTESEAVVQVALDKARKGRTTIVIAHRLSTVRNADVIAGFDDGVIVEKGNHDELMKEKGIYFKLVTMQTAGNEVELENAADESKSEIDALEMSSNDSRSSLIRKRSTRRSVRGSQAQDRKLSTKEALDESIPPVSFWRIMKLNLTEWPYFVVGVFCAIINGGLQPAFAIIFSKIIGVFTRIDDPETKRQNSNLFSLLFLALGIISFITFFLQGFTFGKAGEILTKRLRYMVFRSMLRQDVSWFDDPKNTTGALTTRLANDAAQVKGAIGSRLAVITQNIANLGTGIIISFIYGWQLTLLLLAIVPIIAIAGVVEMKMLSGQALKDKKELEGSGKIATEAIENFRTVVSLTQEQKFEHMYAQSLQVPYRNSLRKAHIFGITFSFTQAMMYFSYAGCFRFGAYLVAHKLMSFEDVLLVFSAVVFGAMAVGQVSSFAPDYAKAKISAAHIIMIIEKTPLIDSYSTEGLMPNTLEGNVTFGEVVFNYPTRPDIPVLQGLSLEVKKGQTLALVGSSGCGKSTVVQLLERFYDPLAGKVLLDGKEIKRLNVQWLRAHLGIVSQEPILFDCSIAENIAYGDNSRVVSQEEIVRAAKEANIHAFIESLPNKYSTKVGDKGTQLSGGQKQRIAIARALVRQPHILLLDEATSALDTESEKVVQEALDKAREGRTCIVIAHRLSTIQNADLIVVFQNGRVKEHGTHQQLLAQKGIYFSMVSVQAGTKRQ
Experimental: as §1

[3] = system: SphK2; details: previously found; cited from earlier work
[4] = system: SphK1; details: previously found; cited from earlier work
[5] = MTT cytotoxicity assay in Lucena 1; format: cell-based; details: human, Lucena 1 cells, read-out: IC50 (cytotoxicity) against Lucena 1
Experimental: (§2) Then 0.5 mg/mL MTT in PBS was added. After additional incubation for 4 h, the formazan crystals obtained were dissolved in DMSO and the absorbance at 595 nm was read on an iMark micro-plate reader (Bio-Rad, USA). IC50 values for cytotoxicity were then calculated as reported[50] using nonlinear regression by GraphPad Prism 7 (Graphpad Software, Inc., San Diego, CA, USA, www.graphpad.com).
(§3) The cells were incubated at 37 °C at 5% CO2 for 48 h and the same protocol described above was followed. IC50 values of Dox were then obtained.

[6] = MTT cytotoxicity assay in K562; format: cell-based; details: human, K562 cells, read-out: IC50 (cytotoxicity) against K562
Experimental: as §2, §3

[7] = molecular target: T1, P-gp
Experimental: The intracellular accumulation of the fluorescent probes, Dox and Rho123, was determined by monitoring its fluorescence intensity using flow cytometry (96-well plate format), as previously reported. The inhibition on the outward transport of these P-gp substrates results in an increased […] fluorescence intensity (MFI). […] The plates were then incubated in a 5% CO2 incubator for 1 h at 37 °C. Afterwards, 5 μM Dox was added to each well. The other fluorescent specific substrate of P-gp, Rho123, however, was added at 500 ng/mL to additionally measure the ability of the most promising compounds to block its efflux. Subsequently, cells from both assays were washed twice with cold PBS, and 15,000 events from each sample were analyzed to determine the cell-associated fluorescence. Dead cells were eliminated by means of forward- and side-scatter parameters. […] The blocking of the P-gp transport function was evaluated by the parameter FIR, calculated as the ratio of the MFI of Dox or Rho123 with the addition of the likely inhibitor to the MFI of Dox or Rho123 alone.

SMILES | minimum effective concentration (MEC), Dox accumulation [2] [µM] | FIR Lucena 1 ([2]; 5 µM) | FIR Lucena 1 ([2]; 10 µM) | FIR Lucena 1 ([2]; 20 µM) | FIR Lucena 1 ([2]; 1.25 µM) | FIR Lucena 1 ([2]; 2.5 µM) | FIR Lucena 1 ([2]; 0.31 µM) | FIR Lucena 1 ([2]; 0.62 µM) | Rho123 fluorescence intensity, fold lower in Lucena 1 with respect to K562 [7] [fold] | FIR K562 ([1]; compound 20 µM) | FIR K562 ([1]; compound 5 µM) | FIR K562 ([1]; compound 10 µM) | IC50 against SphK2 [3] | IC50 against SphK1 [4] | IC50 at 48 h [5] [µM] | IC50 at 48 h [6] [µM]
CC(=O)c1ccc(Nc2nccc(-c3ccc4ccccc4c3)n2)cc1 [Compound 3] | 10 | 1.06 ± 0.05 | 1.24 ± 0.02 | 1.70 ± 0.22 |  |  |  |  |  | 0.98 ± 0.07 |  |  |  |  |  | 
O=c1[nH]c2ccccc2cc1CNc1ccc(Nc2nccc(-c3ccc(Cl)cc3)n2)cc1 [Compound 4a] | 20 |  | 1.03 ± 0.01 | 1.21 ± 0.04 |  |  |  |  |  | 0.89 ± 0.03 |  |  |  |  |  | 
COc1ccc2[nH]c(=O)c(CNc3ccc(Nc4nccc(-c5ccc(Cl)cc5)n4)cc3)cc2c1 [Compound 4b] | 2.5 | 1.20 ± 0.06 | 1.23 ± 0.08 | 1.29 ± 0.08 | 1.10 ± 0.13 | 1.20 ± 0.06 |  |  |  | 0.90 ± 0.03 |  |  |  |  |  | 
COc1cc2cc(CNc3ccc(Nc4nccc(-c5ccc(Cl)cc5)n4)cc3)c(=O)[nH]c2cc1OC [Compound 4c] | 0.62 | 1.32 ± 0.09 | 1.28 ± 0.07 | 1.39 ± 0.07 | 1.24 ± 0.08 | 1.31 ± 0.11 | 1.03 ± 0.01 | 1.11 ± 0.03 |  | 0.93 ± 0.02 |  |  |  |  |  | 
O=c1[nH]c2ccccc2cc1CNc1ccc(Nc2nccc(-c3ccc4ccccc4c3)n2)cc1 [Compound 5a] | 2.50 | 1.06 ± 0.01 | 1.10 ± 0.02 | 1.24 ± 0.07 | 0.95 ± 0.05 | 1.05 ± 0.01 |  |  |  | 0.86 ± 0.02 |  |  |  |  |  | 
COc1ccc2[nH]c(=O)c(CNc3ccc(Nc4nccc(-c5ccc6ccccc6c5)n4)cc3)cc2c1 [Compound 5b] | 0.62 | 1.31 ± 0.08 | 1.25 ± 0.07 | 1.36 ± 0.08 | 1.21 ± 0.07 | 1.29 ± 0.08 | 1.07 ± 0.03 | 1.16 ± 0.07 |  | 0.96 ± 0.02 |  |  |  |  |  | 
Clc1ccc(-c2ccnc(N3CCNCC3)n2)cc1 [Compound 6] |  | 1.18 ± 0.03 | 1.38 ± 0.08 | 1.65 ± 0.12 | 1.09 ± 0.06 | 1.18 ± 0.04 |  |  |  | 1.20 ± 0.02 | 1.09 ± 0.04 | 1.19 ± 0.02 |  |  |  | 
c1ccc2cc(-c3ccnc(N4CCNCC4)n3)ccc2c1 [Compound 7] |  | 1.19 ± 0.05 | 1.42 ± 0.02 | 2.23 ± 0.26 |  | 1.07 ± 0.10 |  |  |  | 1.20 ± 0.06 |  | 1.10 ± 0.08 |  |  | 17.9 ± 0.55 | 
NCCN1CCN(c2nccc(-c3ccc(Cl)cc3)n2)CC1 [Compound 10] | 1.25 | 1.41 ± 0.09 | 1.30 ± 0.05 | 1.72 ± 0.14 | 1.11 ± 0.03 | 1.26 ± 0.04 |  | 1.06 ± 0.04 |  | 1.18 ± 0.03 |  | 0.98 ± 0.06 |  |  |  | 
COc1cc2cc(COc3nccc(-c4ccc(Cl)cc4)n3)c(=O)[nH]c2cc1OC [Compound 11] | 1.25 | 1.38 ± 0.07 | 1.30 ± 0.07 | 2.87 ± 0.55 | 1.14 ± 0.02 | 1.23 ± 0.04 |  | 1.02 ± 0.02 |  | 1.44 ± 0.03 |  | 1.01 ± 0.02 |  |  | 10.7 ± 0.15 | 3.8 ± 0.1
COC(=O)c1ccccc1-c1c2ccc(=N)cc-2oc2cc(N)ccc12 [Rhodamine 123, reference compound] |  |  |  |  |  |  |  |  | 5.87 |  |  |  |  |  |  | 
COc1cccc2c1C(=O)c1c(O)c3c(c(O)c1C2=O)C[C@@](O)(C(=O)CO)C[C@@H]3O[C@H]1C[C@H](N)[C@H](O)[C@H](C)O1 [doxorubicin, reference compound] |  |  |  |  |  |  |  |  |  |  |  |  |  |  | 23 ± 5.41 | 0.64 ± 0.13
COc1ccc(CCN(C)CCCC(C#N)(c2ccc(OC)c(OC)c2)C(C)C)cc1OC (stereo not drawn) [verapamil, reference compound] |  |  |  |  |  |  |  |  |  | 1.08 ± 0.05 |  |  |  |  |  | 

Further lines, with some results ahead:

minimum effective concentration (MEC), Dox accumulation [2] [µM] | FIR Lucena 1 ([2]; 5 µM) | FIR Lucena 1 ([2]; 10 µM) | FIR Lucena 1 ([2]; 20 µM) | FIR Lucena 1 ([2]; 1.25 µM) | FIR Lucena 1 ([2]; 2.5 µM) | FIR Lucena 1 ([2]; 0.31 µM) | FIR Lucena 1 ([2]; 0.62 µM) | Rho123 fluorescence intensity, fold lower in Lucena 1 with respect to K562 [7] [fold] | SMILES | FIR K562 ([1]; compound 20 µM) | FIR K562 ([1]; compound 5 µM) | FIR K562 ([1]; compound 10 µM) | IC50 against SphK2 [3] | IC50 against SphK1 [4] | IC50 at 48 h [5] [µM] | IC50 at 48 h [6] [µM]
5 | 1.15 ± 0.05 | 1.30 ± 0.05 | 1.40 ± 0.05 |  | 1.06 ± 0.04 |  |  |  | O=c1[nH]c2ccccc2cc1CN1CCN(c2nccc(-c3ccc(Cl)cc3)n2)CC1 [Compound 6a] | 0.92 ± 0.04 |  |  |  |  |  | 
2.5 | 1.32 ± 0.09 | 1.44 ± 0.13 | 1.55 ± 0.07 | 1.01 ± 0.03 | 1.15 ± 0.05 |  |  |  | COc1ccc2[nH]c(=O)c(CN3CCN(c4nccc(-c5ccc(Cl)cc5)n4)CC3)cc2c1 [Compound 6b] | 0.94 ± 0.10 |  |  |  |  |  | 
0.62 | 1.32 ± 0.09 | 1.49 ± 0.20 | 1.68 ± 0.12 | 1.19 ± 0.07 | 1.32 ± 0.08 | 1.00 ± 0.01 | 1.11 ± 0.03 |  | COc1cc2cc(CN3CCN(c4nccc(-c5ccc(Cl)cc5)n4)CC3)c(=O)[nH]c2cc1OC [Compound 6c] | 0.79 ± 0.007 |  |  | no activity | no activity |  | 
1.25 | 1.38 ± 0.11 | 1.52 ± 0.17 | 1.33 ± 0.11 | 1.10 ± 0.03 | 1.28 ± 0.12 |  | 0.95 ± 0.02 |  | O=c1[nH]c2ccccc2cc1CN1CCN(c2nccc(-c3ccc4ccccc4c3)n2)CC1 [Compound 7a] | 1.02 ± 0.07 |  |  |  |  |  | 
0.62 | 1.27 ± 0.04 | 1.29 ± 0.11 | 1.45 ± 0.10 | 1.24 ± 0.05 | 1.23 ± 0.02 | 1.08 ± 0.05 | 1.22 ± 0.07 |  | COc1cc2cc(CN3CCN(c4nccc(-c5ccc6ccccc6c5)n4)CC3)c(=O)[nH]c2cc1OC [Compound 7c] | 1.04 ± 0.03 |  |  |  |  | 10.2 ± 0.23 | 6.7 ± 0.2
1.25 | 1.30 ± 0.08 | 1.63 ± 0.17 | 2.36 ± 0.25 | 1.13 ± 0.03 | 1.21 ± 0.02 |  | 1.04 ± 0.03 |  | NCCN1CCN(c2nccc(-c3ccc4ccccc4c3)n2)CC1 [Compound 10a] | 1.26 ± 0.06 | 0.98 ± 0.01 | 1.13 ± 0.02 |  |  | 17.1 ± 0.95 | 17.7 ± 0.15

From article PMC8376931, “Structure activity relationships and the binding mode of quinolinone-pyrimidine hybrids as reversal agents of multidrug resistance mediated by P-gp” (Scientific Reports, 2021)
